Four molecules from patent publication US20070134660A1, “Methods for identifying modulators of kinesin activity” (ROSETTA INPHARMATICS LLC, priority 2003, published 2007) can be followed below.

One assay has as its target T1, KSP (SEQ ID NO:15) (Homo sapiens, UniProt P52732).
T1 construct: His6 (printed only as 'H')
T1 sequence (P52732 with tags, fused parts or gaps): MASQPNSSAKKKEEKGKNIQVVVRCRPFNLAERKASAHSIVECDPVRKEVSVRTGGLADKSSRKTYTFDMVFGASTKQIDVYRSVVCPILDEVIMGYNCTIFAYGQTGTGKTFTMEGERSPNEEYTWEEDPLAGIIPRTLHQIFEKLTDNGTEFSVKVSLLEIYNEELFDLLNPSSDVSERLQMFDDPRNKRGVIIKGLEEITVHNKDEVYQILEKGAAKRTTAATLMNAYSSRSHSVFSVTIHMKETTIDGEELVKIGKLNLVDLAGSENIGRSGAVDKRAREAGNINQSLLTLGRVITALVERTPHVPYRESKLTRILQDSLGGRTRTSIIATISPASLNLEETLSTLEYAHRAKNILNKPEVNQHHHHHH
Description: KSP motor domain ATPase assay. The note with it: n = 2. It is filed as biochemical.

The target of another assay is T2, uKHC (SEQ ID NO:17) (Homo sapiens, UniProt P33176).
T2 construct: His6 (printed only as 'H')
T2 sequence (P33176 with tags, fused parts or gaps): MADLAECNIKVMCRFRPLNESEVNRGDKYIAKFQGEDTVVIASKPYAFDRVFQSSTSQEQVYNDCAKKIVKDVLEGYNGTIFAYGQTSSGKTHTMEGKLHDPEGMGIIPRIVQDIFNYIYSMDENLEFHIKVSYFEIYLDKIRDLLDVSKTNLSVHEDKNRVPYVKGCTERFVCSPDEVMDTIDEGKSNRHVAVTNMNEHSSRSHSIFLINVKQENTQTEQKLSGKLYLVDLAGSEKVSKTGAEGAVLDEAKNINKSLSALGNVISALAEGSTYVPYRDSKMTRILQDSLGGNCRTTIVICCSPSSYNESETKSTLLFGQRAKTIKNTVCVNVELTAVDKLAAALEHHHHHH
Description: uKHC motor domain ATPase assay. The class given is biochemical. As to conditions: read-out: uKHC, nKHC, CENP-E, MKLP-1, KIF1B, MCAK ATPase IC50.

The target of another assay is T3, nKHC (SEQ ID NO:18) (Homo sapiens, UniProt Q12840).
T3 construct: His6 (printed only as 'H')
T3 sequence (Q12840 with tags, fused parts or gaps): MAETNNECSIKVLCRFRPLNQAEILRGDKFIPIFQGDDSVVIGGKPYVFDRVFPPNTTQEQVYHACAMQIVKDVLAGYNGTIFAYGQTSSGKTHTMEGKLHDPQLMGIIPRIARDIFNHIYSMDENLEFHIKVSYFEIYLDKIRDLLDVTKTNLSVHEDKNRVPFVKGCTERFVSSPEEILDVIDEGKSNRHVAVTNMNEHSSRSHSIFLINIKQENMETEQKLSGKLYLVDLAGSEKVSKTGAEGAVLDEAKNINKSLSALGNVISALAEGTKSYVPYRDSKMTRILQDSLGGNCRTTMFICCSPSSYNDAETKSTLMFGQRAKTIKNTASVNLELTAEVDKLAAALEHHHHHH
Description: nKHC motor domain ATPase assay. It is filed as biochemical. As to conditions: read-out: uKHC, nKHC, CENP-E, MKLP-1, KIF1B, MCAK ATPase IC50.

For the next assay, the target named is T4, CENP-E (SEQ ID NO:19) (Homo sapiens, UniProt Q02224).
T4 construct: His6 (printed only as 'H')
T4 sequence (Q02224 with tags, fused parts or gaps): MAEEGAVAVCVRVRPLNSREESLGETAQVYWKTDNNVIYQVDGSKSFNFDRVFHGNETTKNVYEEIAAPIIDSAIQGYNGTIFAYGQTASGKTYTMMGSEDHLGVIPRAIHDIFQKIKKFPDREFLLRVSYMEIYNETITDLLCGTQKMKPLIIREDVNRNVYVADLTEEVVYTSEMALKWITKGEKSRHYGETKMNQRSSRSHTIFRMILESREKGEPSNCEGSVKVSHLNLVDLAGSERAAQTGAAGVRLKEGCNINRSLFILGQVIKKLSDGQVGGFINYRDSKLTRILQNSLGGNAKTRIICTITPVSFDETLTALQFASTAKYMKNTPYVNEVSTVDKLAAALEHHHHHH
Description: CENP-E motor domain ATPase assay. The class given is biochemical. The note with it: read-out: uKHC, nKHC, CENP-E, MKLP-1, KIF1B, MCAK ATPase IC50.

The target in another assay is T5, MKLP-1 (SEQ ID NO:20) (Homo sapiens, UniProt Q02241).
T5 construct: His6 (printed only as 'H')
T5 sequence (Q02241 with tags, fused parts or gaps): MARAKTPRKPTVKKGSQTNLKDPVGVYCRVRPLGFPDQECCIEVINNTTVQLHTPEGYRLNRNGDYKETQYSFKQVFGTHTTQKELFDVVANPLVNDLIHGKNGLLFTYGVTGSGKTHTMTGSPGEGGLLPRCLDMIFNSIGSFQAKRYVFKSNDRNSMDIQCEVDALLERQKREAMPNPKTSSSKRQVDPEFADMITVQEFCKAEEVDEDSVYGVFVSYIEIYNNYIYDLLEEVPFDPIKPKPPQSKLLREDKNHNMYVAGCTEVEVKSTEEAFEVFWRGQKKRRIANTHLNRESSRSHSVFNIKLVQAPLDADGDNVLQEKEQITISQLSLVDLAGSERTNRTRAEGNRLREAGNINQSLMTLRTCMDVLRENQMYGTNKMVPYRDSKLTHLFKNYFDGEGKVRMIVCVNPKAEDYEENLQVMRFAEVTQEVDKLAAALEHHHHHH
Description: MKLP-1 motor domain ATPase assay. It is filed as biochemical. As to conditions: read-out: uKHC, nKHC, CENP-E, MKLP-1, KIF1B, MCAK ATPase IC50.

For a further assay, the target named is MCAK (SEQ ID NO:22) (Homo sapiens, UniProt Q99661). Description: MCAK motor domain ATPase assay. The class given is biochemical. The note with it: read-out: uKHC, nKHC, CENP-E, MKLP-1, KIF1B, MCAK ATPase IC50.
For another assay, the system named is HeLa cells. Description: alamarBlue cell growth assay, candidate KIF14 modulators in HeLa cells. It is filed as cell-based, human. The note with it: 72 hours; for IC50: Homo sapiens, HeLa, compounds 1 and 2: submaximal inhibition. On the procedure:
alamarBlue™ Assay for Cell Growth: The alamarBlue™ assay is a measure of cellular respiration and is used as a measure of live cell number. The internal environment of the proliferating cell is more reduced than that of non-proliferating cells. Specifically, the ratios of NADPH/NADP, FADH/FAD, FMNH/FMN, and NADH/NAF increase during proliferation. alamarBlue™ can be reduced by these metabolic intermediates and, therefore, can be used to monitor cell proliferation.
HeLa cells were plated at a density of 2000/cells per well in 10% DMEM in a 96-well plate (Costar, Cat. No. 3606) 20 hours prior to treatment with a KIF14 inhibitory compound in a series of dilutions (20 microliters of 11-fold concentrated solution of the compound added to 200 microliters of media). The cells were incubated at 37° C. for 72 hours prior to replacement of 100 microliters per well of the media with 10% (vol/vol) alamarBlue™ reagent. After incubation for 2 hours at 37° C., the plates were read on a spectrofluorimeter SpectroMax Gemini (excitation 544 nm, emission 590 nm). The background value (averaged from wells with no cells) was subtracted from each reading.

MCAK (SEQ ID NO:22), sequence (Q99661 183-646): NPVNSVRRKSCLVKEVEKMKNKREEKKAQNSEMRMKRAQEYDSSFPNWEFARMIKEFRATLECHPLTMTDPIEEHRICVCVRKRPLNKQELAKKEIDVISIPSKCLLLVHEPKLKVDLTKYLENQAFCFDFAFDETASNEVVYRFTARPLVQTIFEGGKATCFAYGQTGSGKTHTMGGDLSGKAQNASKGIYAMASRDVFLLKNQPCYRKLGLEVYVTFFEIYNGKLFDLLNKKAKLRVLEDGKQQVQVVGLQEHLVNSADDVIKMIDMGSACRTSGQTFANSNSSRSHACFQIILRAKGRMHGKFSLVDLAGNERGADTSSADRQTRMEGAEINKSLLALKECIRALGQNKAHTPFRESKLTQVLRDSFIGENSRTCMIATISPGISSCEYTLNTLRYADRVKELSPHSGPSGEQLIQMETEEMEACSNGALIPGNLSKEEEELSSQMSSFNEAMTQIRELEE

On to `NC(=S)N/N=C/c1ccc(C2CCCCC2)cc1` [compound 3, 4-cyclohexylbenzaldehyde thiosemicarbazone], for which the IC50 was 1.53 µM at KSP (SEQ ID NO:15); > 40 µM on uKHC (SEQ ID NO:17); > 40 µM at nKHC (SEQ ID NO:18); > 40 µM at CENP-E (SEQ ID NO:19); > 40 µM at MKLP-1 (SEQ ID NO:20); > 40 µM on MCAK (SEQ ID NO:22). The IC50 in the assay with HeLa cells came out at 2.8 µM. The “Growth Inhibition in HeLa Cells” value came out at 8.97% with HeLa cells ([Compound] 19.5 nm); 5.97% with HeLa cells ([Compound] 39.1 nm); 8.16% in the assay with HeLa cells ([Compound] 78.1 nm); 6.91% with HeLa cells ([Compound] 156.2 nm); 8.88% in the assay with HeLa cells ([Compound] 312.5 nm); 12.32% in the assay with HeLa cells ([Compound] 625 nm). Besides, the “Growth Inhibition in HeLa Cells” value was found to be 7.53% in the assay with HeLa cells ([Compound] 1250 nm), 44.36% in the assay on HeLa cells ([Compound] 2500 nm), 83.84% in the assay with HeLa cells ([Compound] 5000 nm) and 95.02% in the assay with HeLa cells ([Compound] 10000 nm).
For `NC(=S)N/N=C\c1ccc(-c2ccccc2)cc1` [compound 1, 1,1′-biphenyl-4-carbaldehyde thiosemicarbazone], the IC50 against KSP (SEQ ID NO:15), at uKHC (SEQ ID NO:17), at nKHC (SEQ ID NO:18), on CENP-E (SEQ ID NO:19), at MKLP-1 (SEQ ID NO:20) and on MCAK (SEQ ID NO:22) was > 40 µM throughout. This molecule also had an IC50 in the assay with HeLa cells of 1 µM. For the same molecule, the “Growth Inhibition in HeLa Cells” value with HeLa cells ([Compound] 19.5 nm) is on record as −3.58%; in the assay with HeLa cells ([Compound] 39.1 nm) it was −4.74%; in the assay on HeLa cells ([Compound] 78.1 nm), −2.50%; in the assay on HeLa cells ([Compound] 156.2 nm), 5.29%; with HeLa cells ([Compound] 312.5 nm), 10.32%; with HeLa cells ([Compound] 625 nm), 12.76%. Besides, the “Growth Inhibition in HeLa Cells” value with HeLa cells ([Compound] 1250 nm) came out at 19.73%; in the assay with HeLa cells ([Compound] 2500 nm), 51.68%; with HeLa cells ([Compound] 5000 nm), 48.18%; in the assay with HeLa cells ([Compound] 10000 nm), 40.98%.
On to `CC(C)c1ccc(/C=N/NC(N)=S)cc1` [compound 2, 4-isopropylbenzaldehyde thiosemicarbazone], for which the IC50 on KSP (SEQ ID NO:15) was 25.1 µM; at uKHC (SEQ ID NO:17), > 40 µM; on nKHC (SEQ ID NO:18), > 40 µM; on CENP-E (SEQ ID NO:19) it was > 40 µM; at MKLP-1 (SEQ ID NO:20) it was > 40 µM; on MCAK (SEQ ID NO:22), > 40 µM.
As for `CC(C)c1ccc(/C=N/NC(N)=S)cc1[N+](=O)[O-]` [compound 4, 4-isopropyl-3-nitrobenzaldehyde thiosemicarbazone], the IC50 on KSP (SEQ ID NO:15) is 1.1 µM; on uKHC (SEQ ID NO:17), > 40 µM; on nKHC (SEQ ID NO:18) it was > 40 µM; at CENP-E (SEQ ID NO:19), > 40 µM; at MKLP-1 (SEQ ID NO:20), > 40 µM; at MCAK (SEQ ID NO:22) it was > 40 µM.
